Measurements as given in patent US20250179519A1, “PROCESS TO ENHANCE VIRAL VECTOR PRODUCTION IN CELL-CULTURE USING GLYCYL-GLUTAMINE” (Evonik Operations GmbH, priority 2022, published 2025).
Peptide text beside a SMILES is read from it.

Tests used:
[1] = test system: HEK Expi293F cells; experiment: Transfection efficiency via GFP expression by flow cytometry; type: cell-based; conditions: for transfection efficiency: 96 h post transfection, 8 mM supplement
Description: (§1) A lab study to evaluate the influence of glutamine-dipeptides on viral vector production (AAV8) was conducted. HEK293 cells (HEK Expi293F cells, Thermo Fisher Scientific) were pre-cultured in shake flasks in a commercial culture medium recommended for viral vector production (Freestyle F17 Expression medium, Gibco, Thermo Fisher Scientific). After thawing the cells in 20 ml of the respective media variant (final concentration of glutamine or glutamine dipeptide in media variants was 8 mM) in 125 mL shake flasks, they were cultivated for five passages at 37° C. (185 rpm/50 mm orbit, 5% CO2) following a passaging rhythm of 3-4 days. For production, cells were split into three replicates each with a seeding viable cell density of 2×10^6 cells/mL (day 0) in 22 mL of the respective media variant. They were transfected with polyethylenimine (PEI MAX, Polysciences) with a 2-plasmid system for AAV8 (Plasmid Factory) featuring green fluorescent protein (GFP) as gene of interest 24 hours after inoculation (day 1). Again, media variants were supplemented by glutamine (Gln), alanyl-glutamine (Ala-Gln, via the liquid supplement, GlutaMAX™, Gibco, Thermo Fisher Scientific) or glycyl-glutamine hydrate (Gly-Gln, cQrex® GQ, Evonik Operations) to a final concentration glutamine or glutamine dipeptide of 8 mM (each n=3).
(§2) To analyze cell culture performance in the different media supplementations viable cell density and viability were determined via automated cell counter. Ammonium (fluorometric approach) as well as glucose and lactate concentration (enzymatic-amperometric method) were determined during preculture and AAV8 production phase on samples from one shake flask per supplement. Transfection efficiency was determined via GFP expression by flow cytometry 48, 72 and 96 h post-transfection. For AAV8 titer determination, samples of all replicates (supernatants only) were taken 96 and 120 h post-transfection and analyzed via qPCR (genomic titer) and ELISA (capsid titer).

[2] = test system: AAV8 production in HEK Expi293F cells; experiment: AAV8 capsid titer from supernatant by ELISA; type: cell-based; conditions: 96 h and 120 h post transfection
Description: A lab study to evaluate the influence of glutamine-dipeptides on viral vector production (AAV8) was conducted. HEK293 cells (HEK Expi293F cells, Thermo Fisher Scientific) were pre-cultured in shake flasks in a commercial culture medium recommended for viral vector production (Freestyle F17 Expression medium, Gibco, Thermo Fisher Scientific). After thawing the cells in 20 ml of the respective media variant (final concentration of glutamine or glutamine dipeptide in media variants was 8 mM) in 125 mL shake flasks, they were cultivated for five passages at 37° C. (185 rpm/50 mm orbit, 5% CO2) following a passaging rhythm of 3-4 days. […]
as §2

[3] = test system: AAV8 production in HEK Expi293F cells; experiment: Genomic AAV8 titer from supernatant by qPCR; type: cell-based; conditions: 8 mM supplement; for genomic AAV8 titer: supernatant
Description: as §1, §2

[4] = compared with glutamine; cited from earlier work
[5] = test system: mouse hybridoma (CC9C10); conditions: CC9C10 culture; Gly-Gln 20 mM, Ala-Gln 6 mM; cited from earlier work
[6] = at 20° C. in water; cited from earlier work
[7] = test system: AAV8 production in HEK Expi293F cells; experiment: Full/empty ratio (genomic titer vs. capsid titer); type: cell-based; conditions: from mean values
Description: In a preferred embodiment, the “full/empty ratio” shall be defined as viral genome titer (vg) divided by viral particle titer (vp). A suitable method to determine vg is quantitative polymerase chain reaction (qPCR). A suitable method to measure vp titer including intact virions and empty capsids is serotype-specific enzyme-linked immunosorbent assay (ELISA).
as §2
The full/empty ratio (ratio genomic titer in vg/mL vs. capsid titer in vp/mL) was calculated using the mean values for both sampling points (FIG. 11). The full/empty ratio varied between 14-22% for the 96 h post transfection time point and between 13-21% for the 120 h post transfection time point. […]

**Q.** Which results are given for `C[C@H](N)C(=O)N[C@@H](CCC(N)=O)C(=O)O` [Ala-Gln, alanyl-glutamine, reference compound] (H-Ala-Gln-OH)?
**A.** transfection efficiency [1]: 98%; capsid titer compared to cultures supplemented with Gln [2]: higher capsid titers; genomic titer, comparison between supplements [3]: comparable to the other processes; stability during autoclaving and storage [4]: comparably stable; cell yields [5]: high cell yields; monoclonal antibody production [5]: comparable

**Q.** Which results are given for `NC(=O)CC[C@H](N)C(=O)O` [Gln, L-glutamine]?
**A.** transfection efficiency [1]: 98%; monoclonal antibody production [5]: comparable

**Q.** What does the source list for `NCC(=O)N[C@@H](CCC(N)=O)C(=O)O.O` [Gly-Gln, Glycyl-L-Glutamine hydrate] (H-Gly-Gln-OH)?
**A.** solubility [6]: 154 mg/mL; transfection efficiency [1]: 98%; transfection efficiency, comparison between supplements ([1]; Gln vs Ala-Gln vs Gly-Gln, 8 mM): highest transfection efficiency; relative fluorescence, comparison between supplements ([1]; all sampling points (48, 72, 96 h)): highest relative fluorescence; capsid titer compared to cultures supplemented with Gln [2]: higher capsid titers; genomic AAV8 titer ([3]; 96 h post transfection): 7.3×10^10 vg/mL; genomic AAV8 titer ([3]; 120 h post transfection): 8.2×10^10 vg/mL; stability during autoclaving and storage [4]: comparably stable; full/empty ratio ([7]; 96 h post transfection): 22%; full/empty ratio ([7]; 120 h post transfection): 21%; cell yields [5]: high cell yields; monoclonal antibody production [5]: comparable
